These are literature values, as cited in patent US11406619B2, “Injectable formulations” (priority 2020, dated 2022).

For this series the following is noted: according to the Human Metabolome Database; cited from earlier work.

Each structure is given as a SMILES string.

As for `CN(C)CCc1c[nH]c2ccccc12` [Formulation D0, N,N-dimethyltryptamine], the degradation in solution entry is “degrades relatively quickly in solution”.
